Measurements published in patent US5045567A, “Propanolamine derivatives having anti-diabetic effects” (Hoffmann-La Roche Inc., priority 1989, dated 1991).
Counter-ions that a name gives are not always drawn. Like-named read-outs stand apart in the source and are kept apart here.

Tests used:
[1] = Activity on oxygen consumption (male albino rats in metabolic cages, per os); assay type: in vivo; details: po; for response vs control in vivo at 3 µM, 3 µmol/kg: dosage 3 μM/kg
Protocol: (1) -Activity on oxygen consumption
Male albino rats weighing 160-180 g were placed in metabolic cages after fasting for 24 hours. The cages were ventilated with a constant 6 liter room air/minute which was equilibrated at a dew point of 11° C. Samples of the spent air were collected during periods of in each case 14 minutes after again equilibrating and the oxygen content and CO2 content were analyzed. After an adaptation time of 4 hours the animals, divided into groups of 6, received either placebo (5% gum arabic) or the test substance (suspended in 5% gum arabic) per os. Thereafter, the determinations were carried out for a period of 12 hours. In Table I the average oxygen consumption after medication during the first 3 hours and the entire test duration (12 hours) is given as percentage of the oxygen consumption during the adaptation period. Corresponding corrections for changes in the placebo group have been taken into consideration.

[2] = Activity on heart rate (male albino rats, electrocardiogram, per os); assay type: in vivo; details: rat; for Heart rate (% of controls), 1 hour: 1 hour after treatment; for Heart rate (% of controls), 3 hours: 3 hours after treatment
Protocol: (2) Activity on heart rate
Male albino rats weighing 250-320 g received 6 hours after withdrawl of food either placebo (5% gum arabic) or the test substance (suspended in 5% gum arabic) per os. The animals were subsequently immobilized in perforated plastic tubes. The electrocardiogram was derived by means of bipolar subcutaneous needle electrodes. The R-peak was used to trigger a beat counter. The heart rate measured 1 and 3 hours after treatment was given in Table II as a percentage of the control value (placebo).

[3] = 3 h, rat, per os, 1st-3rd hour, corrected for changes in placebo group, read-out: O2 consumption, % of the value of the pre-period, 1st-3rd hour
[4] = 12 h, rat, per os, 1st-12th hour, corrected for changes in placebo group, read-out: O2 consumption, % of the value of the pre-period, 1st-12th hour
[5] = 3 h, rat, per os, dosage 10 μM/kg, 1st-3rd hour, corrected for changes in placebo group, read-out: O2 consumption, % of the value of the pre-period, 1st-3rd hour
[6] = 12 h, rat, per os, dosage 10 μM/kg, 1st-12th hour, corrected for changes in placebo group, read-out: O2 consumption, % of the value of the pre-period, 1st-12th hour

SMILES	response vs control in vivo at 3 µM, 3 µmol/kg [1, 3]	response vs control in vivo at 3 µM, 3 µmol/kg [1, 4]	Heart rate (% of controls), 1 hour ([2]; dosage 10 mg/kg)	Heart rate (% of controls), 3 hours ([2]; dosage 10 mg/kg)	Heart rate (% of controls), 1 hour ([2]; dosage 30 mg/kg)	Heart rate (% of controls), 3 hours ([2]; dosage 30 mg/kg)	response vs control in vivo at 10 µM, 10 µmol/kg ([1]; Rattus norvegicus, 3 h, read-out: O2 consumption, % of the value of the pre-period, 1st-3rd hour)	response vs control in vivo at 10 µM, 10 µmol/kg ([1]; Rattus norvegicus, 12 h, read-out: O2 consumption, % of the value of the pre-period, 1st-12th hour)	Heart rate (% of controls), 1 hour ([2]; dosage 100 mg/kg)	Heart rate (% of controls), 3 hours ([2]; dosage 100 mg/kg)	response vs control in vivo at 10 µM, 10 µmol/kg [1, 5]	response vs control in vivo at 10 µM, 10 µmol/kg [1, 6]
CCOCCOc1ccc(CCN(CC(CO)c2ccccc2)CC(CO)c2ccccc2)cc1 (racemic) [Example 2c]	132%	108%	103 % of controls	102 % of controls	111 % of controls	104 % of controls	–	–	–	–	–	–
CCOCCOc1ccc(CCNCC(CO)c2ccccc2)cc1.O=C(O)C(=O)O (single isomer, unassigned) [Example 3a, (R or S)-β-[[[p-(2-ethoxyethoxy)phenethyl]amino]methyl]-phenethyl alcohol oxalate]	152%	112%	108 % of controls	–	115 % of controls	–	–	–	–	–	–	–
CCOCCOc1ccc(C[C@@H](C)NCC(CO)c2ccccc2)cc1.O=C(O)C(=O)O (stereo partly drawn) [Example 2a, β-[[[(R)-p-(2-ethoxyethoxy)-α-methylphenethyl]amino]-methyl]-phenethyl alcohol oxalate]	–	–	–	–	105 % of controls	100 % of controls	149%	113%	121 % of controls	112 % of controls	–	–
CCOCCOc1ccc(CCNCC(CO)c2cccc(Cl)c2)cc1.O=C(O)C(=O)O (stereo not drawn) [Example 2b, m-chloro-β-[[[p-(2-ethoxyethoxy)phenethyl]amino]methyl]phenethyl alcohol oxalate]	124%	107%	–	–	106 % of controls	99 % of controls	–	–	114 % of controls	105 % of controls	–	–
CCOCCOc1ccc(CCN(CC(CO)c2cccc(Cl)c2)C[C@H](O)c2ccccc2)cc1 (stereo partly shown) [Example 2d, oxalate]	152%	127%	103 % of controls	100 % of controls	111 % of controls	104 % of controls	–	–	–	–	–	–
OCC(CNCCc1ccc(OCCOCCc2ccccc2)cc1)c1ccccc1 (stereo not drawn) [Example 2j, β-[[[p-(2-phenethoxy)ethoxy]phenethyl]amino]methyl]phenethyl alcohol oxalate]	–	–	–	–	–	–	–	–	110 % of controls	–	137%	113%
CCOCCOc1ccc(CCNCC(CO)c2cccs2)cc1.O=C(O)C(=O)O (stereo not drawn) [Example 2o, β-[[[p-(2-ethoxyethoxy)phenethyl]amino]methyl]-2-thiophene-ethanol oxalate]	–	–	–	–	108 % of controls	–	–	–	111 % of controls	–	147%	115%
CCOC(=O)COc1ccc(CCNCC(CO)c2ccccc2)cc1 (stereo not drawn) [Example 4, ethyl [p-[2-[[β-(hydroxymethyl)phenethyl]-amino]ethyl]phenoxy]acetate hydrochloride]	145%	112%	–	–	–	–	–	–	–	–	–	–
